Tests used:
[1] = target: T1, CDK7/cyclin H/MAT1 (Homo sapiens, UniProt P50613); assay: EMD Millipore (Eurofins) CDK panel; type: biochemical; details: EMD Millipore screening panel, N = 1
T1 construct: purchased EMD Millipore screening panel (now Eurofins)
Description: (§1) Therefore 4,6-pyrimidine 3 was submitted to a EMD Millipore CDK panel to assess potency across the selected CDK family members (Table 3). Modest activity was observed against several CDKs; […]. […]. page 4: […]
(§2) mM Mg Acetate and [9-33P]-ATP (specific activity approx. 500 cpm/pmol, concentration as required). The reaction is initiated by the addition of the MgATP mix. After incubation for 40 minutes at room temperature, the reaction is stopped by the addition of 3% phosphoric acid solution. 10 μL of the reaction is then spotted onto a P30 filtermat and washed three times for 5 minutes in 75 mM phosphoric acid and once in methanol prior to drying and scintillation counting. […]
(§3) , 10 mM MgAcetate and […]
as §2, with “(specific” for “mM Mg Acetate and [9-33P]-ATP (specific”

[2] = target: T2, CDK6/cyclin D3 (Homo sapiens, UniProt Q00534); assay: EMD Millipore (Eurofins) CDK panel; type: biochemical; details: EMD Millipore screening panel, N = 1
T2 construct: purchased EMD Millipore screening panel (now Eurofins)
T2 sequence (Q00534 whole entry): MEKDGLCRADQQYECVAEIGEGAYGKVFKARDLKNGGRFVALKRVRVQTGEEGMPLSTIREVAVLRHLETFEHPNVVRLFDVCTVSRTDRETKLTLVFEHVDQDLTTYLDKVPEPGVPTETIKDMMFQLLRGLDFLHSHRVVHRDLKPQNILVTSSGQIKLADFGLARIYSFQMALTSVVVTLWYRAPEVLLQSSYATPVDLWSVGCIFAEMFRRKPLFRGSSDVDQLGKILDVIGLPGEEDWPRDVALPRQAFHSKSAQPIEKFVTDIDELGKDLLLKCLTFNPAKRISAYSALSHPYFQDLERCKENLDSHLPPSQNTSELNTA
T2 sequence (P30281 whole entry partner): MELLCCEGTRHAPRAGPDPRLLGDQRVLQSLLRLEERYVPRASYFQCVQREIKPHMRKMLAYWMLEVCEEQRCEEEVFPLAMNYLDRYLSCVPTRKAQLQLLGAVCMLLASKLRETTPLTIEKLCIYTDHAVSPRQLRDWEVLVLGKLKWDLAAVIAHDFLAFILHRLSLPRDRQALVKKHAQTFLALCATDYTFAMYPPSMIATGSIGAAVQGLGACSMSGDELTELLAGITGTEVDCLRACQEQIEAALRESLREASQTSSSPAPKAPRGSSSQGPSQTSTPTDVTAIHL
Description: as §1, §2, §3
as §2, with “(specific” for “mM Mg Acetate and [9-33P]-ATP (specific”

[3] = target: T3, CDK5/p35 (Homo sapiens, UniProt Q00535); assay: EMD Millipore (Eurofins) CDK panel; type: biochemical; details: EMD Millipore screening panel, N = 1
T3 construct: purchased EMD Millipore screening panel (now Eurofins)
T3 sequence (Q00535 whole entry): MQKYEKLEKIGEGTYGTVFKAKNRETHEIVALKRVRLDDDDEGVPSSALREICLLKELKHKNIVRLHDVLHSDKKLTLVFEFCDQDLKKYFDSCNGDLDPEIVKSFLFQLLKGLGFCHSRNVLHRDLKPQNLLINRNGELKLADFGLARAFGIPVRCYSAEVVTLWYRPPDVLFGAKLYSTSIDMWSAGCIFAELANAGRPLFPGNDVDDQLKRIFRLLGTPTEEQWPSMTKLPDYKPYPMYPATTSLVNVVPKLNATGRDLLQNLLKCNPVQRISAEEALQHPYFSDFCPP
T3 sequence (Q15078 whole entry partner): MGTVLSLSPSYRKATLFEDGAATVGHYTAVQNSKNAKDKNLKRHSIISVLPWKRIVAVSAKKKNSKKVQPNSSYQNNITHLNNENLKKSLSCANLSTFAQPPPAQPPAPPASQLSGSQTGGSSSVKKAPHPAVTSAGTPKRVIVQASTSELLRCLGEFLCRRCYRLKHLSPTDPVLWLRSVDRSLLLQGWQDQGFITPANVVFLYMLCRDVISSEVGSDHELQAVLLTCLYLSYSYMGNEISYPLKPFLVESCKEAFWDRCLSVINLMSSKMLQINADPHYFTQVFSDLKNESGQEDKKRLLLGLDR
Description: Therefore 4,6-pyrimidine 3 was submitted to a EMD Millipore CDK panel to assess potency across the selected CDK family members (Table 3). Modest activity was observed against several CDKs; […]. […]. page 4:
as §2, with “CDK5/p35 (h) is incubated with 8 mM MOPS pH 7.0, 0.2 mM EDTA, 0.1 mg/mL histone H1, 10 mM Mg” for “mM Mg”
as §3
as §2, with “(specific” for “mM Mg Acetate and [9-33P]-ATP (specific”

[4] = target: T4, CDK2/cyclinE (Homo sapiens, UniProt P24941); assay: EMD Millipore (Eurofins) CDK panel; details: read-out: CDK2/cyclin E IC50; EMD Millipore screening panel, N = 1
Description: Eurofins CDK panel assay conditions
(§4) CDK1/cyclinB (h) is incubated with 8 mM MOPS pH 7.0, 0.2 mM EDTA, 0.1 mg/mL histone H1, 10 mM MgAcetate and [9-33P]-ATP (specific activity approx. 500 cpm/pmol, concentration as required). The reaction is initiated by the addition of the MgATP mix. After incubation for 40 minutes at room temperature, the reaction is stopped by the addition of 3% phosphoric acid solution. 10 μL of the reaction is then spotted onto a P30 filtermat and washed three times for 5 minutes in 75 mM phosphoric acid and once in methanol prior to drying and scintillation counting.
(§5) CDK2/cyclinE (h) is incubated with 8 mM MOPS pH 7.0, 0.2 mM EDTA, 0.1 mg/mL histone H1, 10
(§6) CDK3/cyclinE (h) is incubated with 8 mM MOPS pH 7.0, 0.2 mM EDTA, 0.1 mg/mL histone H1, 10 mM Mg Acetate and [9-33P]-ATP (specific activity approx. 500 cpm/pmol, concentration as

[5] = target: CDK3/cyclin E (Homo sapiens, UniProt Q00526); assay: EMD Millipore (Eurofins) CDK panel; details: read-out: CDK3/cyclin E IC50; EMD Millipore screening panel, N = 1
Description: Eurofins CDK panel assay conditions
as §4, §5, §6

[6] = target: T5, CDK9/cyclin T1 (Homo sapiens, UniProt P50750); assay: EMD Millipore (Eurofins) CDK panel; type: biochemical
T5 construct: purchased EMD Millipore screening panel (now Eurofins)
T5 sequence (P50750 whole entry): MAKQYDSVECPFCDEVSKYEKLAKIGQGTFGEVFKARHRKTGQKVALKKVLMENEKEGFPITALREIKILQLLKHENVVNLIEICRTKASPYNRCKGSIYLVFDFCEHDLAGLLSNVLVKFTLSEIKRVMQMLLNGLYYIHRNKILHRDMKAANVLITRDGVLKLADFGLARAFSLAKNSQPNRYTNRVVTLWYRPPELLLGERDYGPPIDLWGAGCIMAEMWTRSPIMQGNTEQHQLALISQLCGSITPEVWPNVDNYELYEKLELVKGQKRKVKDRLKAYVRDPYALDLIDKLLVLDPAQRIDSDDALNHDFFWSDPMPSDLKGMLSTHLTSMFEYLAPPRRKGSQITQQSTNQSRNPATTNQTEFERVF
T5 sequence (O60563 whole entry partner): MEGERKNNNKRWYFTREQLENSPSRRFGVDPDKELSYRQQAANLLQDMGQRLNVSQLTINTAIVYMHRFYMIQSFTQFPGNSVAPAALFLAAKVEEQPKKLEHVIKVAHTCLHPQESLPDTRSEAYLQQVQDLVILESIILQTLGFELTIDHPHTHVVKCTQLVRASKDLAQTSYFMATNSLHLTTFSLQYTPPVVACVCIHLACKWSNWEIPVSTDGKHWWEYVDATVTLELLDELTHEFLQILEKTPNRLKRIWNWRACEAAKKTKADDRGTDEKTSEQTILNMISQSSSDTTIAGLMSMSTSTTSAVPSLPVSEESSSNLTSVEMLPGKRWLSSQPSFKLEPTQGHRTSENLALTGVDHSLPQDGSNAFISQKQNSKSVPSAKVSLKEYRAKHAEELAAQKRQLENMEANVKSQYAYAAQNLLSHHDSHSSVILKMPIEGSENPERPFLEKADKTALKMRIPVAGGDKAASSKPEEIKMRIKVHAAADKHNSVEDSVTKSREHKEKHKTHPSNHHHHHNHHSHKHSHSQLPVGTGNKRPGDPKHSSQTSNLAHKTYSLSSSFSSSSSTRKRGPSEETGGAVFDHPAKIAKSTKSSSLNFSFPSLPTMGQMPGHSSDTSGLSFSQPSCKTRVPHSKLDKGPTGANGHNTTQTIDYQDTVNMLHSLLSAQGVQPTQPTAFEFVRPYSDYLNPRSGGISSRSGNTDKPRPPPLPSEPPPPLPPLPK
Description: as §1, §2
CDK9/cyclinT1 (h) is incubated with 8 mM MOPS pH 7.0, 0.2 mM EDTA, 100 μM […]
as §3
as §2, with “(specific” for “mM Mg Acetate and [9-33P]-ATP (specific”

[7] = target: CDK1/cyclin B (Homo sapiens, UniProt P06493); assay: EMD Millipore (Eurofins) CDK panel; details: read-out: CDK1/cyclin B IC50; EMD Millipore screening panel, N = 1
Chain of CDK1/cyclin B (P06493 whole entry): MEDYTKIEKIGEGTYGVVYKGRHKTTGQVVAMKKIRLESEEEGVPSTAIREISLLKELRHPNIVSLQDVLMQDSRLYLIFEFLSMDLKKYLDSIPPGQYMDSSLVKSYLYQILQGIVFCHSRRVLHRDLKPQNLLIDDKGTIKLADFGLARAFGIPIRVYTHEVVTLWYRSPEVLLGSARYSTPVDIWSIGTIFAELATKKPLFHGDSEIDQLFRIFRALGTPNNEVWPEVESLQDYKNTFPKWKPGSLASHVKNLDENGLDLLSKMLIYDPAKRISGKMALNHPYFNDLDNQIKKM
Chain of CDK1/cyclin B (P14635 whole entry partner): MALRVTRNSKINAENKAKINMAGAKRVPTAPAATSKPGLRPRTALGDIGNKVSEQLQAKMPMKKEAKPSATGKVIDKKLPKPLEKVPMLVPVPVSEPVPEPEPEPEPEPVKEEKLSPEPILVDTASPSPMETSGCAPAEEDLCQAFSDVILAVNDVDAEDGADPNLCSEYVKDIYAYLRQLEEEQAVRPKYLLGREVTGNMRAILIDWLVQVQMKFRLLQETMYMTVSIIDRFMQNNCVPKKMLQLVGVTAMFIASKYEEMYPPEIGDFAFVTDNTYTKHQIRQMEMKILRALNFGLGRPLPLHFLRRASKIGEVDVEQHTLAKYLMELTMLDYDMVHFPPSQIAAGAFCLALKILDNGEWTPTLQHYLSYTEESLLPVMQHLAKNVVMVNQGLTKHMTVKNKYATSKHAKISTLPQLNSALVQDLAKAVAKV
Description: Eurofins CDK panel assay conditions
as §4, §5, §6

[8] = target: T4, CDK2/cyclinE; assay: CDK2 enzyme assay: off-chip mobility shift assay; type: biochemical; parameters: purchased Upstate/Millipore
Description: CDK2 enzyme assay: Off-chip Mobility SHIFT Assay
All reagents were purchased from Sigma-Aldrich unless otherwise specified. Inhibition of CDK2/cyclinE activity was quantified using an off-chip incubation, mobility shift assay, which uses a microfluidic chip (Caliper Life Sciences) to measure the conversion of a fluorescent peptide substrate to phosphorylated product. An Off-chip Mobility Shift Chip with 12 sippers (Caliper Life Sciences) was prepared for use according to the manufacturer’s instructions using Coating Reagent #3 (Caliper Life Sciences). The off-chip incubation was carried out in white, 384-well, flat bottom, low volume assay plates (Greiner). 5 µL peptide mix (1.5 µM substrate peptide (fluorescein-QSPKKG-CONH2, Bachem) and 90 µM ATP in kinase base buffer (50 mM HEPES, pH7.5 (Calbiochem), 0.06% CHAPSO)) were added to each well of the prepared compound plates which contained 120 nL compound stock solution per well. The reaction was then initiated by the addition of 6 µL enzyme mix (1.0 nM CDK2/cyclin E (Upstate/Millipore), 1.0 mM DTT and 5.0 mM MgCl2 in kinase base buffer). After incubation for 60 min at room temperature, each reaction was terminated by the addition of 10µL of stop solution containing 100 mM HEPES pH 7.5 (Calbiochem), 0.033% Brij-35, 0.22% Coating Reagent #3 (Caliper Life Sciences), 44 mM EDTA and 5 % DMSO. Reaction products were analysed using a Caliper LabChip LC3000 instrument and peak height was used to calculate percentage conversion of substrate to product.
For compound response testing, a 12 point compound concentration range was used. Compounds were acoustically dosed (Echo 555; Labcyte) into assay-ready plates using 11 half log intervals from 100 μM to […] plus a 12th point at 0.01 μM. Each well was backfilled with the required volume up to 120 nL of 100% DMSO to ensure a final 1% v/v DMSO concentration in the assay. In addition to the compound test wells, each plate carried maximum and minimum controls. Staurosporine at 10 μM was used to inhibit CDK2 activity for the minimum control. As a maximum control, 120 nL pure DMSO was added to the wells. Each plate contained at least 11 randomly distributed maximum and minimum controls. After the addition of compounds to the assay plates, the assay was performed as detailed above. Percentage conversion of substrate to product was used to calculate the effect of each compound on the kinase activity of CDK2/cyclinE. Enzyme inhibition model 3, non-linear curve fit analysis within OriginLab™ software was used to fit dose response curves and estimate the […]
concentration of compound required to reduce the enzyme activity to 50% of the conversion calculated from an average of the maximum controls.
Cell-based ELISA (Cellisa) for HSP72 expression
To follow HSP72 protein expression, a product of HSF1 transcriptional activity, Cellisa was developed. Cells (5-8x10^4cells/ml) were seeded into 96-well plates and incubated at 37 °C for 48 h.
Compounds were then added at a range of concentrations and incubated for 1 h before addition of 17-AAG (250 nM). Cells were then incubated for 18 h. The medium was removed and cells were fixed with fixing solution (4% paraformaldehyde, 0.3% TritonX-100 in PBS) for 30 min at 4 °C. The plates were then washed with 0.1% Tween-20/deionised water before blocking with 5% milk for 30 min at 37 °C. After washing the plates, HSP72 antibody (SPA-810, Enzo Life) was added for 1.5 h at 37 °C.
Following 4 x washes, the plates were incubated with europium-labelled anti-mouse antibody (0.6ug/ml) in Delfia assay buffer (Perkin Elmer) for 1 h at 37 °C. After washing the plates, Delfia enhancement solution was added, shaken for 10 min before reading in the Envision plate reader (Perkin-Elmer) with excitation at 340 nm and emission at 615 nm. The plates were washed again before protein determination using the BCA assay. The europium counts were normalised for the amount of protein in each well. The 50% inhibitory concentration value of the compound was then calculated and presented. […]

[9] = system: HSF1-stress pathway; assay: ArrayScan HSP72 protein assay (HSF1-stress pathway inhibition, 17-AAG induced)
Description: To discover inhibitors of the HSF1-stress pathway, we employed an automated cellular imaging and analysis method (ArrayScan™) that quantifies the ability of a compound to suppress the expression of the HSF1-mediated inducible HSP70 isoform, HSP72.
U2OS cells (1500 per well) were plated in 40 μL of DMEM media (containing 10% fetal calf serum and 2 mM Glutamax T-1) in costar 384-well plates and left overnight at 37 °C and 5% CO2 to adhere.
treatment with compound, all wells except min wells were dosed with 17AAG diluted in DMSO (10
°C and 5% CO2. The following day the cells were fixed by addition of 20 μL/well of 12% formaldehyde with 1:1700 Hoechst in PBS for 10 min at room temperature. The fixative was decanted and the wells washed once with 50 μL of phosphate buffer saline (PBS).The PBS was subsequently aspirated, and the cells were permeabilized by addition of 20 μL/well of PBS 0.3% Triton X-100 for 20 min at room temperature. The wells were then washed with 80 μL of PBS prior to the addition of 20 μL of combined primary and secondary antibodies diluted in PBS (1:10 000 mouse anti-Hsp72
11001 molecular probes), for 2 h at room temperature. The wells were then washed with 50 μL of PBS. Finally, 50 μL of PBS was added to each well, and the plates were sealed ready to analyze.
Analysis was carried out using a Cellomics Arrayscan VTI instrument and the Cellomics Arrayscan Compartmental Analysis algorithm to measure cellular levels of HSP72.
100 μM to 0.1 μM plus a 12th point at 0.01 μM. Each well was backfilled with the required volume up to 120 nL of 100% DMSO to ensure a final 1% v/v DMSO concentration in the assay. In addition to the compound test wells, each plate carried maximum and minimum controls. Staurosporine at 10 μM was used to inhibit CDK2 activity for the minimum control. As a maximum control, 120 nL pure DMSO was added to the wells. Each plate contained at least 11 randomly distributed maximum and minimum controls. After the addition of compounds to the assay plates, the assay was performed as detailed above. Percentage conversion of substrate to product was used to calculate the effect of each compound on the kinase activity of CDK2/cyclinE. Enzyme inhibition model 3, non-linear curve fit analysis within OriginLab™ software was used to fit dose response curves and estimate the

T1 sequence (P50613 whole entry): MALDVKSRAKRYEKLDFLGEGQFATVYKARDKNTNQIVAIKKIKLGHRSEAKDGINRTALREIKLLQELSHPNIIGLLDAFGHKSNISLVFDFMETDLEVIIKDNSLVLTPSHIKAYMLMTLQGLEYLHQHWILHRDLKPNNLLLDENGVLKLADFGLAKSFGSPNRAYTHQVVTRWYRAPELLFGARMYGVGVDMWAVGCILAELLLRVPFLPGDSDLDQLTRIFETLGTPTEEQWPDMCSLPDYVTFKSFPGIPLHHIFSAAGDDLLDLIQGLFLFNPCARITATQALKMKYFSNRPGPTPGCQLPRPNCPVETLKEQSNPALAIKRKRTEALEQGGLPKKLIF
T1 sequence (P51946 whole entry partner): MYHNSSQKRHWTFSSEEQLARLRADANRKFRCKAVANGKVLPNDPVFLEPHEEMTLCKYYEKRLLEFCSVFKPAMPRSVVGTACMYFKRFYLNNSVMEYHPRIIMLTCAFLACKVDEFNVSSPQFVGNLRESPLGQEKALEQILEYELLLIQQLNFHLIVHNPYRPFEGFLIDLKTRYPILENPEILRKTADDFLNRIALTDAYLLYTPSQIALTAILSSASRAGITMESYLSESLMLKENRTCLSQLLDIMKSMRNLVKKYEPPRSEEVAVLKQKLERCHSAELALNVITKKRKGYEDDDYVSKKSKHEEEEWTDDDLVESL
T1 sequence (P51948 whole entry partner): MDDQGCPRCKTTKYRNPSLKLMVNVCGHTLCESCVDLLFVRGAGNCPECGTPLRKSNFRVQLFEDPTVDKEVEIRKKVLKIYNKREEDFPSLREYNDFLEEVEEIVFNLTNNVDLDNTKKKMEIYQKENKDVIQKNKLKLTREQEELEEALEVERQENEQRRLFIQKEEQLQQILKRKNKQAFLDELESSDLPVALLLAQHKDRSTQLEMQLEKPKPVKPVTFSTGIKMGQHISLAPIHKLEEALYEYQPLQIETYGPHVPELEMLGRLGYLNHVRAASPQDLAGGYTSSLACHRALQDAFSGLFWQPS

IC50 [1]: 1.1 µM
IC50 [2]: 1.3 µM
IC50 [3]: 0.61 µM
IC50 [4]: 2.8 µM
IC50 [5]: 3.5 µM
IC50 ([6]; EMD Millipore screening panel, N = 1): 0.014 µM
ratio of activity CDK9/CyclinT1 ([6]; ratio between CDK2/7/9, CDK9 = 1, EMD Millipore Screening Panel): 1
IC50 [7]: 1.8 µM
IC50 ([8]; biochemical, CDK2/cyclinE, average of two determinations): 0.58 µM
fold more active against CDK2 compared with phenyl compound 2 ([8]; relative to compound 2): 35 fold
IC50 ([9]; Homo sapiens, U2OS, read-out: HSF1 IC50): 0.08 µM
SMILES: CN(C)CCOc1ccc(Nc2cc(-n3cnc4ccccc43)ncn2)nc1 [Compound 3]
fold more potent in the HSF1-stress pathway assay compared with phenyl compound 2 ([9]; relative to compound 2): approximately 15 fold

From PMC5048338, “Discovery of 4,6-disubstituted pyrimidines as potent inhibitors of the heat shock factor 1 (HSF1) stress pathway and CDK9” (Medchemcomm, 2016)
